Assay results published in patent publication US20240216366A1, “PHARMACEUTICAL COMPOSITION COMPRISING A DIPHENYLPYRAZINE DERIVATIVE” (ACTELION PHARMACEUTICALS LTD, priority 2021, published 2024).
Counter-ions that a name gives are not always drawn.

What was measured:
[1] = Feasibility pK rat study of aqueous micro-suspensions (LAI feasibility); type: in vivo; settings: IM, 50 mg/kg; for long-acting release profile: 125 mg/mL micro-suspension pH 5
Experimental: For this study, aqueous micro-suspensions of Selexipag, {4-[(5,6-diphenylpyrazin-2-yl)(propan-2-yl)amino]butoxy}acetic acid and calcium; {4-[(5,6-diphenylpyrazin-2-yl)(propan-2-yl)amino]butoxy}acetate were prepared. An overview of the design of the study can be found in Table 1.
Release profiles and mean AUC of the different formulations are depicted in FIG. 1.

[2] = Assay/purity of gamma-irradiated drug substance (UPLC); type: physicochemical
Experimental: To evaluate if gamma-irradiation could be used to produce sterile product, different irradiation grades were tested on calcium; {4-[(5,6-diphenylpyrazin-2-yl)(propan-2-yl)amino]butoxy}acetate. In this study, calcium; {4-[(5,6-diphenylpyrazin-2-yl)(propan-2-yl)amino]butoxy}acetate (“COMPOUND”) was irradiated with three different grades (i.e. 5, 25 and 40 kGy). Each irradiation grade was applied on two different COMPOUND vials. One of the two vials for each grade was flushed with nitrogen for 10 seconds. One reference vial containing non-irradiated COMPOUND was included in the assay/purity analysis. All samples were analyzed immediately after irradiation (Table 15) and re-analyzed after 3 months of storage at room temperature.
A second study was conducted on calcium: {4-[(5,6-diphenylpyrazin-2-yl)(propan-2-yl)amino]butoxy}acetate where three different irradiation grades were applied (i.e 5, 25 and 40 kGy).
Analytical Method used: The assay and the impurities of calcium salt of selexipag metabolite before (ref) and after gamma irradiation were analysed using reversed phase chromatography. Sample preparation was done by weighing 50 mg of sample in a 500 mL flask. Approximately 100 mL pH7 phosphate buffer:ACN (50:50) was added whereafter the flask was shaken mechanically for at least 30 minutes until complete dissolution. Dilute to volume with pH7 phosphate buffer:ACN (50:50). The resulting solution was diluted 5× by pipetting 5 mL into a 25 mL flask and diluting with the same dilution solvent. The reference solution is made following the same sample preparation, but using calcium salt of selexipag metabolite (“API”).
Analysis was performed using a Waters UPLC H-Class equipped with DAD detector, column manager and auto-sampler. Separation was done on a Acquity UPLC BEH C18 (2.1×150 mm, 1.7 μm) analytical column using a column temperature of 60° C. DAD detector was set on 230 nm. A 10 mM NH4Ac:ACN:MeOH (950:38:12) solution was used as mobile phase A. A 10 mM NH4Ac:ACN:MeOH (50:710:240) solution was used as mobile phase B. A linear gradient program of 26 minutes was applied starting in which the mobile phase B increases from 5% to 100% in 20 minutes. Hereafter the concentration of mobile phase B was brought back to 5% in 1 minute followed by an equilibration time of 5 minutes. The applied flow rate is 0.30 mL/min. An injection volume of 7 μL was used for the analysis. The assay value of the sample is calculated according following formula:
%=[API peak responsesample×concref×purityref×100%]/[peak responseref×concsample]
The concentration of an impurity is calculated according following formula:
%=[Impurity peak responsesample×concref×purityref×100%]/[peak responseref×concsample]

[3] = Assay/purity of drug product after autoclavation (steam sterilization); type: physicochemical
Experimental: In parallel with gamma-irradiation of the final drug product (formulated calcium; {4-[(5,6-diphenylpyrazin-2-yl)(propan-2-yl)amino]butoxy}acetate having a particle size Dv50 of 8 micrometer), autoclavation (steam sterilization) was evaluated as well.
Not only the effect upon chemical stability, but upon resuspendability was evaluated as well for the process of autoclavation (steam sterilization). The tested samples of experiment 142 were evaluated for resuspendability right after autoclavation (T0) and after 14 days of storage at 5° C. Time needed for resuspendability was acceptable at both timepoints.

[4] = Assay/purity of gamma-irradiated drug product (UPLC); type: physicochemical; settings: gamma-irradiation 40 and 60 kGy
Excerpt: For this reason, both gamma-irradiation and autoclavation (steam sterilization) of the final drug product need to be investigated. To evaluate the chemical stability of the final drug product during gamma-irradiation, 2 different concepts with calcium; {4-[(5,6-diphenylpyrazin-2-yl)(propan-2-yl)amino]butoxy}acetate having a particle size Dv50 of 8 micrometer were subjected to an irradiation grade of 40 kGy and 60 kGy.
Analytical Method used: The assay and the impurities of the gamma irradiated and non-gamma irradiated (ref) calcium salt of selexipag metabolite suspension (formulation) were analysed using reversed phase chromatography. Sample preparation was done by weighing 0.5 mL suspension in a 500 mL flask. Approximately 200 mL pH7 phosphate buffer:ACN (50:50) was added whereafter the flask was shaken mechanically for at least 30 minutes until complete dissolution. Dilute to volume with pH7 phosphate buffer:ACN (50:50). The resulting solution was diluted 5× by pipetting 5 mL into a 25 mL flask and diluting with the same dilution solvent. […]
Analysis was performed using a Waters UPLC H-Class equipped with DAD detector, column manager and auto-sampler. […] The assay value of the sample is calculated according following formula: […]
The concentration of an impurity is calculated according following formula: […]

[5] = tested on: patients with pulmonary arterial hypertension; settings: phase III clinical trial, versus placebo; cited from earlier work
[6] = 5 kGy, 3 months at room temperature
[7] = 5 kGy, 3 months at room temperature, flushed with N2
[8] = 25 kGy, 3 months at room temperature
[9] = 25 kGy, 3 months at room temperature, flushed with N2
[10] = 40 kGy, 3 months at room temperature
[11] = 40 kGy, 3 months at room temperature, flushed with N2
[12] = Reference (non-irradiated), 3 months at room temperature

CC(C)N(CCCCOCC(=O)O)c1cnc(-c2ccccc2)c(-c2ccccc2)n1 [ACT-333679, 2-(4-((5,6-diphenylpyrazin-2-yl)(isopropyl)amino)butoxy)acetic acid, reference compound]
long-acting release profile [1]: did not demonstrate a long-acting release profile

CC(C)N(CCCCOCC(=O)O)c1cnc(-c2ccccc2)c(-c2ccccc2)n1 [Ca-salt of ACT-333679, calcium; {4-[(5,6-diphenylpyrazin-2-yl)(propan-2-yl)amino]butoxy}acetate]
Assay, % COMPOUND [2, 6]: 94.0%
Impurity, % RRT 1.16* [2, 6]: <0.05%
Impurity, % RRT 1.32* [2, 6]: 0.06%
Impurity, % RRT 1.34* [2, 6]: <0.05%
Assay, % COMPOUND [2, 7]: 94.1%
Impurity, % RRT 1.16* [2, 7]: <0.05%
Impurity, % RRT 1.32* [2, 7]: 0.06%
Impurity, % RRT 1.34* [2, 7]: <0.05%
Assay, % COMPOUND ([2]; 5 kGy, T0): 95.3%
Impurity, % RRT 1.16* ([2]; 5 kGy, T0): 0.05%
Impurity, % RRT 1.32* ([2]; 5 kGy, T0): <0.05%
Impurity, % RRT 1.34* ([2]; 5 kGy, T0): 0.09%
Assay, % COMPOUND ([2]; 5 kGy, T0, flushed with N2): 94.6%
Impurity, % RRT 1.16* ([2]; 5 kGy, T0, flushed with N2): 0.05%
Impurity, % RRT 1.32* ([2]; 5 kGy, T0, flushed with N2): <0.05%
Impurity, % RRT 1.34* ([2]; 5 kGy, T0, flushed with N2): 0.06%
Assay, % COMPOUND [2, 8]: 94.2%
Impurity, % RRT 1.16* [2, 8]: 0.07%
Impurity, % RRT 1.32* [2, 8]: 0.12%
Impurity, % RRT 1.34* [2, 8]: 0.06%
Assay, % COMPOUND [2, 9]: 93.6%
Impurity, % RRT 1.16* [2, 9]: <0.05%
Impurity, % RRT 1.32* [2, 9]: 0.05%
Impurity, % RRT 1.34* [2, 9]: 0.08%
Assay, % COMPOUND ([2]; 25 kGy, T0): 95.1%
Impurity, % RRT 1.16* ([2]; 25 kGy, T0): 0.10%
Impurity, % RRT 1.32* ([2]; 25 kGy, T0): 0.11%
Impurity, % RRT 1.34* ([2]; 25 kGy, T0): 0.06%
Assay, % COMPOUND ([2]; 25 kGy, T0, flushed with N2): 95.6%
Impurity, % RRT 1.16* ([2]; 25 kGy, T0, flushed with N2): <0.05%
Impurity, % RRT 1.32* ([2]; 25 kGy, T0, flushed with N2): 0.13%
Impurity, % RRT 1.34* ([2]; 25 kGy, T0, flushed with N2): 0.09%
Assay, % COMPOUND [2, 10]: 94.3%
Impurity, % RRT 1.16* [2, 10]: 0.08%
Impurity, % RRT 1.32* [2, 10]: 0.15%
Impurity, % RRT 1.34* [2, 10]: 0.10%
Assay, % COMPOUND [2, 11]: 92.9%
Impurity, % RRT 1.16* [2, 11]: 0.08%
Impurity, % RRT 1.32* [2, 11]: 0.14%
Impurity, % RRT 1.34* [2, 11]: 0.10%
Assay, % COMPOUND ([2]; 40 kGy, T0): 94.3%
Impurity, % RRT 1.16* ([2]; 40 kGy, T0): 0.13%
Impurity, % RRT 1.32* ([2]; 40 kGy, T0): 0.14%
Impurity, % RRT 1.34* ([2]; 40 kGy, T0): 0.06%
Assay, % COMPOUND ([2]; 40 kGy, T0, flushed with N2): 94.5%
Impurity, % RRT 1.16* ([2]; 40 kGy, T0, flushed with N2): 0.12%
Impurity, % RRT 1.32* ([2]; 40 kGy, T0, flushed with N2): 0.15%
Impurity, % RRT 1.34* ([2]; 40 kGy, T0, flushed with N2): 0.07%
Assay, % COMPOUND [2, 12]: 94.4%
Impurity, % RRT 1.16* [2, 12]: <0.05%
Impurity, % RRT 1.32* [2, 12]: <0.05%
Impurity, % RRT 1.34* [2, 12]: <0.05%
Assay, % COMPOUND ([2]; Reference (non-irradiated), T0): 95.3%
Impurity, % RRT 1.16* ([2]; Reference (non-irradiated), T0): <0.05%
Impurity, % RRT 1.32* ([2]; Reference (non-irradiated), T0): <0.05%
Impurity, % RRT 1.34* ([2]; Reference (non-irradiated), T0): 0.09%
chemical stability ([2]; drug substance, gamma-irradiation 5, 25, 40 kGy): acceptable
Assay, % COMPOUND ([2]; second study, 5 kGy): 104.4%
Impurity, % RRT 1.15* ([2]; second study, 5 kGy): <0.05%
Impurity, % RRT 1.16* ([2]; second study, 5 kGy): <0.05%
Impurity, % RRT 1.32* ([2]; second study, 5 kGy): <0.05%
Assay, % COMPOUND ([2]; second study, 25 kGy): 104.3%
Impurity, % RRT 1.15* ([2]; second study, 25 kGy): 0.06%
Impurity, % RRT 1.16* ([2]; second study, 25 kGy): 0.09%
Impurity, % RRT 1.32* ([2]; second study, 25 kGy): 0.07%
Assay, % COMPOUND ([2]; second study, 40 kGy): 103.7%
Impurity, % RRT 1.15* ([2]; second study, 40 kGy): 0.06%
Impurity, % RRT 1.16* ([2]; second study, 40 kGy): 0.12%
Impurity, % RRT 1.32* ([2]; second study, 40 kGy): 0.10%
AUC increases up until ([1]; 125 mg/mL micro-suspension): ≤ 720 h
long-acting release profile up to ([1]; 125 mg/mL micro-suspension): up to 336 hours
plasma concentrations ([1]; 125 mg/mL micro-suspension, FIG. 1): significant lower plasma concentrations compared to both other groups
chemical stability in the drug product [3]: chemically stable
chemical stability in the drug product [4]: acceptable

CC(C)N(CCCCOCC(=O)NS(C)(=O)=O)c1cnc(-c2ccccc2)c(-c2ccccc2)n1 [Selexipag, 2-{4-[(5,6-diphenylpyrazin-2-yl)(propan-2-yl)amino]butoxy}-N-(methanesulfonyl)acetamide, reference compound]
risk of the primary composite end point of death or a complication related to pulmonary arterial hypertension [5]: significantly lower
long-acting release profile [1]: did not demonstrate a long-acting release profile
